# Assay results as given in patent EP1326493B1, “AGROCHEMICAL COMPOSITION CONTAINING ACTIVITY-ENHANCING ADJUVANTS” (Syngenta Limited, priority 2000, dated 2002).
# Assays:
# Daphnia magna = Daphnia magna immobilisation ecotoxicity test; assay type: in vivo
# Experimental: The following ecotoxicity results were obtained for various alkyl amine alkoxylates using the following test method. First instar Daphnia magna (less than 24 hrs old), obtained from cultures were exposed to a range of concentrations of the test amine ethoxylates in hard blended water (160-180 mg CaCO3 /litre). 10 Daphnia magna were added to each vessel which were then placed at ∼20 degrees C on a 16/8 light/dark day. Organisms were assessed at 24 and 48 hours, the effect observed being immobilisation after gentle agitation. The EC50 values were calculated using a statistical package, the 95% confidence limits are quoted in brackets.
# The amine ethoxylates were tested in the presence of potassium glyphosate in order to protonate the amine. […] The remaining adjuvants were tested in the absence of potassium glyphosate. It can be seen that the ecotoxicity of the alkyl amine alkoxylates 3 to 6 falling within the definition of the present invention was very much lower that that for the nearest previously known compounds 1 to 2. It will be appreciated that the higher the EC50 value, the lower the toxicity.
# [1] = Dynamic surface tension, maximum bubble pressure method (Lauda MPT-2); assay type: physicochemical
# Experimental: Dynamic surface tension can be measured using the maximum bubble pressure method. Various commercial instruments are available for measuring dynamic surface tension by the maximum bubble pressure method, for example the Lauda MPT-2 maximum bubble pressure instrument. The dynamic surface tension at 40msecs is determined from the maximum pressure in a bubble blown from a capillary inserted into a surfactant solution, for a bubble surface lifetime of 40msecs.
# The dynamic surface tension measurements were carried out with a Lauda MPT-2 maximum bubble pressure tensiometer. The dynamic surface tension at 40 msecs was determined from the maximum pressure in a bubble blown from a capillary inserted into a surfactant solution, for a bubble surface lifetime of 40 msecs. The dynamic surface tensions were determined for solutions containing 0.1%, 0.2% or 0.5% by weight of the second adjuvant in deionised water at 20°C. For comparison, the dynamic surface tension of a 0.5% by weight solution of 2-ethylhexyl amine 8EO adjusted to pH4 with dilute hydrochloric acid (to protonate the amine) was also determined at 20°C.
# [2] = test system: Sorgham halepense (SORHA); test: Glass-house comparative efficacy test of potassium glyphosate with adjuvants; assay type: in vivo; conditions: potassium glyphosate 240 g acid equivalent/ha, 21 days after treatment
# Experimental: (§1) Potassium glyphosate was applied at 240 g glyphosate acid equivalent/ha to Chenopodium album (CHEAL), Echinochloa crus-galli (ECHCG) and Sorgham halepense (SORHA) plants grown in the glass-house. All treatments were made up in deionised water and applied using a tracksprayer with a 11002 nozzle at a spray application volume of […]. All treatments were replicated 4 times. After spraying the plants were laid out in a glass-house and maintained at a temperature of 24°C by day and 16°C by night. The Agrimul PG2067 and Synperonic PEL62 adjuvants were used in a proportion 0.2% w/v. The adjuvant 2-ethylhexyl amine 8EO was used at both 0.2%w/v and 0.3%w/v. The adjuvant Sodium dodecyl sulphate was used in a proportion of 0.3%w/v. When applied as binary blends all adjuvants were used in a proportion of 0.1%w/v except Sodium dodecyl sulphate which was applied at 0.2%w/v. A visual assessment of % control, where 0=unaffected and 100=complete kill, was carried out 21 days after treatment.
# [3] = test system: Echinochloa crus-galli (ECHCG); test: as above; assay type: in vivo; conditions: potassium glyphosate 240 g acid equivalent/ha, 21 days after treatment
# Experimental: as §1
# [4] = test system: Chenopodium album (CHEAL); test: as above; assay type: in vivo; conditions: potassium glyphosate 240 g acid equivalent/ha, 21 days after treatment
# Experimental: as §1
# [5] = test system: Chenopodium album (CHEAL); test: Field efficacy test of potassium glyphosate with adjuvants; assay type: in vivo; conditions: potassium glyphosate + 0.2% adjuvant, mean across 100, 200, 400 and 600 g glyphosate acid/ha, 33 days after application
# Text: (§2) Potassium glyphosate, in combination with the adjuvants specified below in Table 3, was applied to Lolium perenne (LOLPE), Avena fatua (AVEFA) and Chenopodium album (CHEAL) drilled as rows in the field, at a spray application volume of […]. Application rates were 100, 200, 400 and 600 g glyphosate acid/ha and each treatment was replicated 3 times. Data (mean of the three replicates and across all rates) is presented for a visual assessment of % control carried out 33 days after application, where 0 = unaffected and 100% = complete kill Table 3.
# Lolium perenne (LOLPE) = test: as above; assay type: in vivo; conditions: potassium glyphosate + 0.2% adjuvant, mean across 100, 200, 400 and 600 g glyphosate acid/ha, 33 days after application
# Text: as §2
# Avena fatua (AVEFA) = test: as above; assay type: in vivo; conditions: potassium glyphosate + 0.2% adjuvant, mean across 100, 200, 400 and 600 g glyphosate acid/ha, 33 days after application
# Text: as §2
compound,measurement,setting,value
CCCCCCCCCCCCOS(=O)(=O)O [Number 9],EC50,"Daphnia magna; Daphnia magna, 48 hours, immobilisation, tested in the absence of potassium glyphosate, 95% confidence limits in brackets, read-out: Daphnia toxicity EC50",16 µg/mL
"CCCCCCCCCCCCOS(=O)(=O)[O-].[Na+] [Number 9, Sodium dodecyl sulphate, reference compound]",Dynamic Surface Tension at 40 msecs,[1]; 0.2% by weight in deionised water at 20°C,53 mNm^-1
same,Dynamic Surface Tension at 40 msecs,[1]; 0.5% by weight in deionised water at 20°C,39 mNm^-1
same,visual assessment of % control SORHA,[2]; single adjuvant 0.3%,76%
same,visual assessment of % control ECHCG,[3]; single adjuvant 0.3%,78%
"O=C(O)CNCP(=O)([O-])O.[K+] [Potassium glyphosate, reference compound]",contribution to the daphnia toxicity,Daphnia magna; potassium glyphosate itself,does not make a significant contribution
same,visual assessment of % control CHEAL,[4]; no adjuvant,3%
same,visual assessment of % control SORHA,[2]; no adjuvant,21%
same,visual assessment of % control ECHCG,[3]; no adjuvant,48%
2-ethylhexyl amine 8EO [Number 3],visual assessment of % control CHEAL,[5],74%
same,visual assessment of % control LOLPE,Lolium perenne (LOLPE),47%
same,visual assessment of % control AVEFA,Avena fatua (AVEFA),68%
same,Dynamic Surface Tension at 40 msecs,"[1]; 0.5% by weight solution adjusted to pH4 with dilute hydrochloric acid, 20°C",64 mNm^-1
same,visual assessment of % control CHEAL,[4]; single adjuvant 0.2%,59%
same,visual assessment of % control SORHA,[2]; single adjuvant 0.2%,74%
same,visual assessment of % control SORHA,[2]; single adjuvant 0.3%,75%
same,visual assessment of % control ECHCG,[3]; single adjuvant 0.2%,63%
same,visual assessment of % control ECHCG,[3]; single adjuvant 0.3%,64%
